As a reminder, the IC50 is the concentration that gives 50% inhibition.

This note sets out measurements from patent US6093732A, “4-hydroxyquinoline-3-carboxamides and hydrazides as antiviral agents” (Pharmacia & Upjohn Company, priority 1998, dated 2000).

T1 sequence (P08546 whole entry): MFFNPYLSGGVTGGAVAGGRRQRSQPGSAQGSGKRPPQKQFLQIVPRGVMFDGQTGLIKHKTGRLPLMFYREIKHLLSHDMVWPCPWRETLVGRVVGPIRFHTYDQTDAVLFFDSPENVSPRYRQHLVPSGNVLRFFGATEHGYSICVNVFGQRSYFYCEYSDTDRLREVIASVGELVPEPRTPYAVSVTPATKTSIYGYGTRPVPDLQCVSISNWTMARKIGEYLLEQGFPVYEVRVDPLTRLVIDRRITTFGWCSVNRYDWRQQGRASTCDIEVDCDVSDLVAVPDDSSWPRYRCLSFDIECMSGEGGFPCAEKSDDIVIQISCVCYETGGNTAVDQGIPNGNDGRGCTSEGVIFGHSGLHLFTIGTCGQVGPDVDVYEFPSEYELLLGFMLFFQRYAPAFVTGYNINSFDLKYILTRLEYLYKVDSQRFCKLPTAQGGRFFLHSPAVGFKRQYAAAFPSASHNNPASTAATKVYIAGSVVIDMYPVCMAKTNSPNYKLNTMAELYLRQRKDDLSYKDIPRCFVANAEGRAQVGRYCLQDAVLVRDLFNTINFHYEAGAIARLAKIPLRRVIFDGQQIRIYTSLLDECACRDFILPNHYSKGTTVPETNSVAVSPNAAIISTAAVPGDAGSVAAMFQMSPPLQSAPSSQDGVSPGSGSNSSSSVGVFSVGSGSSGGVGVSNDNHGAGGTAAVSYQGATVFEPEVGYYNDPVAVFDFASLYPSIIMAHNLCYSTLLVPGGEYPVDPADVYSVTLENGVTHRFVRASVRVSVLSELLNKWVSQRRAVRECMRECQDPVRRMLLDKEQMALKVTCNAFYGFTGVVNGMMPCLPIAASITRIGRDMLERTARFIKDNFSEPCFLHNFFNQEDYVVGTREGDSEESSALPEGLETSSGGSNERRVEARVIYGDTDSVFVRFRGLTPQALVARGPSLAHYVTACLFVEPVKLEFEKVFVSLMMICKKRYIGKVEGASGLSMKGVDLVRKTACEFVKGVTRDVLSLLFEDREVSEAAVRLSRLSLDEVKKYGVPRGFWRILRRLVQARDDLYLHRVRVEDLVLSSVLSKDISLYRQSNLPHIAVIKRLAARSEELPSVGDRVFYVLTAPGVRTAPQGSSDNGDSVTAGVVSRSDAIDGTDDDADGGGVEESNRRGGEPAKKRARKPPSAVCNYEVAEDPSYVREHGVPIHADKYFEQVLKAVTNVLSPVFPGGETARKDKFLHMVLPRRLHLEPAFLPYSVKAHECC

One experiment addresses T1, HCMV polymerase (Human cytomegalovirus, UniProt P08546).
T1 construct: made in house; host or cells: recombinant baculovirus-infected SF-9 cells
Kind of experiment: HCMV polymerase scintillation proximity assay (SPA), modified version. Type of experiment: biochemical. As to conditions: Antiviral Selective Polymerase IC50 Values, CMV, Table 1, modified assay with 4.5 mM DTT, compounds in 100% DMSO. The gist of the method: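 Recombinant polymerase (baculovirus/SF-9) in 5.4 mM HEPES pH 7.5, 11.7 mM KCl, 4.5 mM MgCl2, 0.36 mg/ml BSA, 90 nM 3H-dTTP, ±2 mM CHAPS; started with 6 nM biotinylated poly(dA)-oligo(dT), 25° C or 37° C, EDTA-stopped in linear range (30 min for HCMV). Streptavidin-SPA read; IC50 by linear regression. Modified version: 100% DMSO compound dilution, 4.5 mM DTT added.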
(In a scintillation proximity assay essentially only radioactivity close to the scintillant gives light.)
For the compound `O=C(NCc1ccc(Cl)cc1)c1cnc2c(F)cc(S(=O)(=O)NCCBr)cc2c1O` [Example 244, 6-{[(2-bromoethyl)amino]sulfonyl}-N-(4-chlorobenzyl)-8-fluoro-4-hydroxy-3-quinolinecarboxamide], the IC50 amounted to 19 µM.

Staying with this experiment, now noted: CMV polymerase; Table 1; modified assay with 4.5 mM DTT, compounds in 100% DMSO; read-out: Antiviral Selective Polymerase IC50 Values, CMV.
On to `O=C(NCc1ccc(Cl)cc1)c1cnc2c(F)cc(S(=O)(=O)NCCOc3ccccc3)cc2c1O` [Example 256, N-(4-chlorobenzyl)-8-fluoro-4-hydroxy-6-{[(2-phenoxyethyl)amino]sulfonyl}-3-quinolinecarboxamide], for which the IC50 came out at 9.3 µM.

For the compound `O=C(NCc1ccc(Cl)cc1)c1cnc2cc(C(F)(F)F)c(SCc3ccccc3)cc2c1O` [Example 72, N-[(4-Chlorophenyl)methyl]-4-hydroxy-6-[(phenylmethyl)thio]-7-(trifluoromethyl)-3-quinolinecarboxamide], the half-maximal inhibitory concentration (IC50) worked out at 9.4 µM.

With `O=C(NNc1ccc(Cl)cc1)c1cnc2ccc(I)cc2c1O` [Example 91, 4-Hydroxy-6-iodo-3-quinolinecarboxylic acid 2-(4-chlorophenyl)hydrazide], the IC50 was found to be 3.8 µM.

Take `CC(C)(C)CNS(=O)(=O)c1cc(F)c2ncc(C(=O)NCc3ccc(Cl)cc3)c(O)c2c1` [Example 222, N-(4-chlorobenzyl)-8-fluoro-4-hydroxy-6-[(neopentylamino)sulfonyl]-3-quinolinecarboxamide]: the concentration for half-maximal inhibition (IC50) came out at 11.5 µM.

Consider `O=C(NCc1ccc(Cl)cc1)c1cnc2c(F)ccc(F)c2c1O` [Example 17, N-[(4-Chlorophenyl)methyl]-5,8-difluoro-4-hydroxy-3-quinolinecarboxamide], for which the IC50 is 3.3 µM.

`O=C(NCc1ccc(Cl)cc1)c1cnc2c(F)cc(S(=O)(=O)NCC3CC3)cc2c1O` [Example 253, N-(4-chlorobenzyl)-6-{[(cyclopropylmethyl)amino]sulfonyl}-8-fluoro-4-hydroxy-3-quinolinecarboxamide]: the IC50 turned out to be 20.6 µM.

`O=C(NCc1ccc(Cl)cc1)c1cnc2c(F)cc(I)cc2c1O` [Example 5, N-[(4-Chlorophenyl)methyl]-8-fluoro-4-hydroxy-6-iodo-3-quinolinecarboxamide]: the IC50 came to 5.8 µM.

For `CC(C)(C)O[PH](=O)OCCCc1ccc2ncc(C(=O)NCc3ccc(Cl)cc3)c(O)c2c1` (centres unmarked) [Example 270, tert-Butyl 3-(3-{[(4-chlorobenzyl)amino]carbonyl}-4-hydroxy-6-quinolinyl)propyl phosphonate], the IC50 was found to be 2.8 µM.

With `CC(C)Oc1c(F)cc2c(O)c(C(=O)NCc3ccc(Cl)cc3)cnc2c1F` [Example 86, N-((4-Chlorophenyl)methyl)-6,8-difluoro-4-hydroxy-7-(1-methylethoxy)-3-quinolinecarboxamide], the IC50 was found to be 10.7 µM.

On to `Cc1ccc(CNS(=O)(=O)c2cc(F)c3ncc(C(=O)NCc4ccc(Cl)cc4)c(O)c3c2)cc1C` [Example 252, N-(4-chlorobenzyl)-6-{[(3,4-dimethylbenzyl)amino]sulfonyl}-8-fluoro-4-hydroxy-3-quinolinecarboxamide], for which the IC50 worked out at 18.9 µM.

For `O=C(NCc1ccc(Cl)cc1)c1cnc2c(F)cc(S(=O)(=O)NCCc3c[nH]c4ccccc34)cc2c1O` [Example 193, N-(4-Chlorobenzyl)-8-fluoro-4-hydroxy-6-({[2-(1H-indol-3-yl)ethyl]-amino)sulfonyl)-3-quinolinecarboxamide], the IC50 is 2.7 µM.

In the case of `O=C(NCc1ccc(Cl)cc1)c1cnc2cc(I)ccc2c1O` [Example 39, N-[(4-Chlorophenyl)methyl]-4-hydroxy-7-iodo-3-quinolinecarboxamide], the 50% inhibitory concentration (IC50) was < 3.1 µM.

On to `O=C(NCc1ccc(Cl)cc1)c1cnc2c(F)cc(S(=O)(=O)NCCN3CCOCC3)cc2c1O` [Example 213, N-(4-chlorobenzyl)-8-fluoro-4-hydroxy-6-{[(2-morpholinoethyl)amino]sulfonyl}-3-quinolinecarboxamide], for which the half-maximal inhibitory concentration (IC50) was found to be 18.9 µM.

With `COc1cc(OC)c2ncc(C(=O)NCc3ccc(Cl)cc3)c(O)c2c1` [Example 60, N-((4-Chlorophenyl)methyl)-4-hydroxy-6,8-dimethoxy-3-quinolinecarboxamide], the IC50 turned out to be 4 µM.

For `CN(CCS(=O)(=O)O)C(=O)CCCCCCC(=O)OCC#Cc1cc(F)c2ncc(C(=O)NCc3ccc(Cl)cc3)c(O)c2c1` [Example 275], the IC50 was 28.4 µM.

Turning to `COCC#Cc1cc(F)c2ncc(C(=O)NCc3ccc(Cl)cc3)c(O)c2c1` [Example 95, N-(4-Chlorobenzyl)-8-fluoro-4-hydroxy-6-(3-methoxy-1-propynyl)-3-quinolinecarboxamide], the IC50 worked out at 1.9 µM.

Regarding `O=C(NCc1ccc(Cl)cc1)c1cnc2c(F)cc(O)cc2c1O` [Example 3, N-[(4-Chlorophenyl)methyl]-8-fluoro-4,6-dihydroxy-3-quinoline-carboxamide], the IC50 was 24 µM.

On to `N#CCCCC#Cc1cc(F)c2ncc(C(=O)NCc3ccc(Cl)cc3)c(O)c2c1` [Example 89, N-(4-Chlorobenzyl)-6-(5-cyano-1-pentynyl)-8-fluoro-4-hydroxy-3-quinolinecarboxamide], for which the IC50 came out at 7.2 µM.

As for `O=C(NCCO)c1cc(F)c2ncc(C(=O)NCc3ccc(Cl)cc3)c(O)c2c1` [Example 181, N^3-(4-Chlorobenzyl)-8-fluoro-4-hydroxy-N^6-(2-hydroxyethyl)-3,6-quinolinedicarboxamide], the IC50 stood at 39.2 µM.

As for `O=C(NCc1ccc(Cl)cc1)c1cnc2c(F)cc(S(=O)(=O)N3CCOCC3)cc2c1O` [Example 198, N-(4-Chlorobenzyl)-8-fluoro-4-hydroxy-6-(4-morpholinylsulfonyl)-3-quinolinecarboxamide], the IC50 worked out at 21 µM.

With `Cc1ccc2ncc(C(=O)NCc3ccc(Cl)cc3)c(O)c2c1` [Example 22, N-[(4-Chlorophenyl)methyl]-4-hydroxy-6-methyl-3-quinoline-carboxamide], the IC50 came to 4 µM.

In the case of `CNS(=O)(=O)c1cc(F)c2ncc(C(=O)NCc3ccc(Cl)cc3)c(O)c2c1` [Example 239, N-(4-chlorobenzyl)-8-fluoro-4-hydroxy-6-[(methylamino)sulfonyl]-3-quinolinecarboxamide], the IC50 was determined as 13.1 µM.

As to `O=C(NCc1ccc(Cl)cc1)c1cnc2c(F)cc(S(=O)(=O)NCc3cccc4ccccc34)cc2c1O` [Example 192, N-(4-Chlorobenzyl)-8-fluoro-4-hydroxy-6-{[(1-naphthylmethyl)aminor]-sulfonyl}-3-quinolinecarboxamide], the IC50 was 1.6 µM.

With `CSc1cc(F)c2ncc(C(=O)NCc3ccc(Cl)cc3)c(O)c2c1` [Example 170, N-(4-Chlorobenzyl)-8-fluoro-4-hydroxy-6-(methylsulfanyl)-3-quinolinecarboxamide], the 50% inhibitory concentration (IC50) was 4.4 µM.

For `O=C(NCc1ccc(Cl)cc1)c1cnc2c(OC3CCOCC3)c(F)c(F)cc2c1O` [Example 78, N-((4-Chlorophenyl)methyl)-6,7-difluoro-4-hydroxy-8-(tetrahydro-2H-pyran-4-oxy)-3-quinolinecarboxamide], the IC50 was determined as 0.71 µM.

In the case of `O=C(NCc1ccc(Cl)cc1)c1cnc2c(F)cc(SCCO)cc2c1O` [Example 171], the IC50 stood at 1.9 µM.

For the compound `O=C(NCc1ccc(Cl)cc1)c1cnc2c(Cl)cccc2c1O` [Example 46, 8-Chloro-N-[(4-chlorophenyl)methyl]-4-hydroxy-3-quinolinecarboxamide], the concentration for half-maximal inhibition (IC50) came out at 2.8 µM.

`O=C(NCc1ccc(Cl)cc1)c1cnc2ccc(CO)cc2c1O` [Example 166, N-(4-Chlorobenzyl)-4-hydroxy-6-(hydroxymethyl)-3-quinolinecarboxamide]: the IC50 turned out to be 7 µM.

Regarding `O=C(NCc1ccc(Cl)cc1)c1cnc2ccc(O)cc2c1O` [Example 44, N-[(4-Chlorophenyl)methyl]-4,6-dihydroxy-3-quinoline-carboxamide], the IC50 was 28.7 µM.

Turning to `O=C(NCc1ccc(Cl)cc1)c1cnc2c(F)cc(CCCOP(=O)(O)O)cc2c1O` [Example 268, 3-(3-{[(4-Chlorobenzyl)amino]carbonyl}-8-fluoro-4-hydroxy-6-quinolinyl)propyl dihydrogen phosphate], the IC50 turned out to be 9.5 µM.

For `O=C(NCc1ccc(Cl)cc1)c1cnc2c(F)cc(Br)cc2c1O` [Example 4], the IC50 stood at 3.4 µM.

With `O=C(NCc1ccc(Cl)cc1)c1cnc2c(F)cc(S(=O)(=O)NCCc3cccs3)cc2c1O` [Example 255, N-(4-chlorobenzyl)-8-fluoro-4-hydroxy-6-({[2-(2-thienyl)ethyl]amino}sulfonyl)-3-quinolinecarboxamide], the IC50 stood at 12.1 µM.

As to `O=C(NCc1ccc(Cl)cc1)c1cnc2c(F)cc(C#CCCCO)cc2c1O` [Example 107, N-(4-Chlorobenzyl)-8-fluoro-4-hydroxy-6-(5-hydroxy-1-pentynyl)-3-quinolinecarboxamide], the IC50 came to 5.4 µM.

Turning to `O=C(NCc1ccc(Cl)cc1)c1cnc2cc(CCCO)ccc2c1O` [Example 111, N-(4-Chlorobenzyl)-4-hydroxy-7-(3-hydroxypropyl)-3-quinoline-carboxamide], the IC50 turned out to be 2.6 µM.

With `C[S+]([O-])c1cc(F)c2ncc(C(=O)NCc3ccc(Cl)cc3)c(O)c2c1` (centres unmarked) [Example 175, N-(4-Chlorobenzyl)-8-fluoro-4-hydroxy-6-(methylsulfinyl)-3-quinolinecarboxamide], the IC50 was found to be 7.2 µM.

Regarding `Cc1cc(F)c2ncc(C(=O)NCc3ccc(Cl)cc3)c(O)c2c1` [Example 38, N-[(4-Chlorophenyl)methyl]-8-fluoro-4-hydroxy-6-methyl-3-quinolinecarboxamide], the IC50 turned out to be 3.2 µM.

`COc1cc(I)cc2c(O)c(C(=O)NCc3ccc(Cl)cc3)cnc12` [Example 117, N-(4-Chlorobenzyl)-4-hydroxy-6-iodo-8-methoxy-3-quinolinecarboxamide]: the 50% inhibitory concentration (IC50) was determined as 8.7 µM.
